Patent US11236069B2, “KIF18A inhibitors” (AMGEN INC., priority 2018, dated 2022)

Biological target: Recombinant human KIF18A (1-467 His-tagged) protein (Homo sapiens (Human), UniProt Q8NI77)
Test: KIF18A Enzyme Assay: microtubule-stimulated ATPase activity (ADP-Glo)
Settings: read-out: KIF18A ATPase IC50; 30 nM KIF18A, 30 μg/mL pig microtubules, ATP at Km 75 μM, ADP-Glo luminescence
Excerpt: KIF18A Enzyme Assay: Microtubule-stimulated ATPase activity assay is used to measure KIF18A enzyme activity after treatment with compound. Compounds were 2-fold serially diluted in DMSO (Sigma Inc) over 22-point concentration range. […] The assay measures ADP formed from the ATPase reaction.

Chain of Recombinant human KIF18A (1-467 His-tagged) protein (Q8NI77 1-467): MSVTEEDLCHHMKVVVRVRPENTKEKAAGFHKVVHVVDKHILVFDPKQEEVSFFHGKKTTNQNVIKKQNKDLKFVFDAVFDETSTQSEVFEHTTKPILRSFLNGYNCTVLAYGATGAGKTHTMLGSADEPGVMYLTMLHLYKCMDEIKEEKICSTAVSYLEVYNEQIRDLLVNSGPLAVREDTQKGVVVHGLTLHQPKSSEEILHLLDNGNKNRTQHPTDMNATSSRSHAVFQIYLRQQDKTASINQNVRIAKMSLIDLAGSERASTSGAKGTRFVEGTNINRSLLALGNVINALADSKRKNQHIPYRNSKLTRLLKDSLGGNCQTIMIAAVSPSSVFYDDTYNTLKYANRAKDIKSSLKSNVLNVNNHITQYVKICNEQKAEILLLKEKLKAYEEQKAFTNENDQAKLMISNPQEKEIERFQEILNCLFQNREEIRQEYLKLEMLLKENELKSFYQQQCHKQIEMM
Chain of Recombinant human KIF18A (1-467 His-tagged) protein (P02550 whole entry partner): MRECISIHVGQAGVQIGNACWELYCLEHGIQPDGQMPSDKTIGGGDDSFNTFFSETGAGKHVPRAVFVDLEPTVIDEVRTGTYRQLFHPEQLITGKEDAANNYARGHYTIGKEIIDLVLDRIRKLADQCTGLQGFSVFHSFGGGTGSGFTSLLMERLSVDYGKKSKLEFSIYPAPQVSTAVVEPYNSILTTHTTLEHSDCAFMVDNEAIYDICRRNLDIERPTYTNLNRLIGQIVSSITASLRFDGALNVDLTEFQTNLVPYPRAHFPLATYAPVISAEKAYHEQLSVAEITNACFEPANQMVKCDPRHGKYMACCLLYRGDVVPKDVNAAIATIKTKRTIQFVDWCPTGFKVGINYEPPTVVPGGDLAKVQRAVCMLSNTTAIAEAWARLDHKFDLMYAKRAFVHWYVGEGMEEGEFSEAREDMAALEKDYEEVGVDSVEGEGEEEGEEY
Chain of Recombinant human KIF18A (1-467 His-tagged) protein (P02554 whole entry partner): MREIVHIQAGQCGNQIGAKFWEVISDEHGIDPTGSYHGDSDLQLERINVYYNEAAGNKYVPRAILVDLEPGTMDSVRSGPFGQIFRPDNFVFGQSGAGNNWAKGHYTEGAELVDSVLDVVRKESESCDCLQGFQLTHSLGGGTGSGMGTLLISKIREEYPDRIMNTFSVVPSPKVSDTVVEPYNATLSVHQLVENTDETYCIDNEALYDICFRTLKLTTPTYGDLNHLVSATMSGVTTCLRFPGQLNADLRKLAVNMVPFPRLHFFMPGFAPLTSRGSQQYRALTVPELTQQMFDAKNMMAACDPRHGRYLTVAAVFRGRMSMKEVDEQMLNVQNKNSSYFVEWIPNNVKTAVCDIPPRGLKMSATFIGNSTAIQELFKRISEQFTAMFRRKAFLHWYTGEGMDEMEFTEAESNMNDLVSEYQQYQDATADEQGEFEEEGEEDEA

IC50 [nM] | SMILES
125 | CC(C)(O)c1cc(NC(=O)c2ccc(NS(=O)(=O)CCO)cc2N2CCC3(CC2)CC3)nc(N2CCC(F)(F)CC2)n1 [Example 6-37, N-(2-(4,4-Difluoropiperidin-1-yl)-6-(2-hydroxypropan-2-yl)pyrimidin-4-yl)-4-((2-hydroxyethyl)sulfonamido)-2-(6-azaspiro[2.5]octan-6-yl)benzamide]
413 | Cc1cc(NC(=O)c2ccc(NS(=O)(=O)C(C)(C)C)cc2N2CCC3(CC2)CC3)nc(N2CCC(F)(F)CC2)n1 [Example 6-14, N-(2-(4,4-Difluoropiperidin-1-yl)-6-methylpyrimidin-4-yl)-4-((1,1-dimethylethyl)sulfonamido)-2-(6-azaspiro[2.5]octan-6-yl)benzamide]
32 | Cc1cc(NC(=O)c2ccc(S(=O)(=O)NC3(C)COC3)cc2N2CCC3(CC2)CC3)nc(OCCC(F)(F)F)n1 [Example 1-6, N-(6-Methyl-2-(3,3,3-trifluoropropoxy)pyrimidin-4-yl)-4-(N-(3-methyloxetan-3-yl)sulfamoyl)-2-(6-azaspiro[2.5]octan-6-yl)benzamide]
127 | Cc1cc(NC(=O)c2ccc(NS(=O)(=O)C3CCC3)cc2N2CCC3(CC2)CC3)nc(N2CCC(F)(F)CC2)n1 [Example 6-11, 4-(Cyclobutanesulfonamido)-N-(2-(4,4-difluoropiperidin-1-yl)-6-methylpyrimidin-4-yl)-2-(6-azaspiro[2.5]octan-6-yl)benzamide]
41 | Cc1cc(NC(=O)c2ccc(NS(=O)(=O)CCO)cc2N2CCC3(CC2)CC3)nc(N2CCC[C@@](C)(F)C2)n1 [Example 11-55, (R)-N-(2-(3-Fluoro-3-methylpiperidin-1-yl)-6-methylpyrimidin-4-yl)-4-((2-hydroxyethyl)sulfonamido)-2-(6-azaspiro[2.5]octan-6-yl)benzamide]
148 | Cc1cc(NC(=O)c2ccc(NS(=O)(=O)CCO)cc2N2CCC3(CC2)CC3)cc(N2CCO[C@H](C)C2)n1 [Example 11-66]
39 | Cc1cc(NC(=O)c2ccc(NS(=O)(=O)[C@@H](C)CO)cc2N2CCC3(CC2)CC3)nc(N2CCO[C@H](C)C2)n1 [Example 6-23-1, 4-(((S)-2-Hydroxy-1-methylethyl)sulfonamido)-N-(6-methyl-2-((R)-2-methylmorpholino)pyrimidin-4-yl)-2-(6-azaspiro[2.5]octan-6-yl)benzamide]
22 | O=C(Nc1ccnc(N2CCC(F)(F)CC2)c1F)c1ccc(NS(=O)(=O)CCO)cc1N1CCC2(CC1)CC2 [Example 11-63, N-(2-(4,4-Difluoropiperidin-1-yl)-3-fluoropyridin-4-yl)-4((2-hydroxyethyl)sulfonamido)-2-(6-azaspiro[2.5]octan-6-yl)benzamide]
150 | Cc1cc(NC(=O)c2ccc(NS(=O)(=O)CCO)cc2N2CCC3(CC2)CC3)nc(N2CCOC(C)(C)C2)n1 [Example 11-46, N-(2-(2,2-Dimethylmorpholino)-6-methylpyrimidin-4-yl)-4-((2-hydroxyethyl)sulfonamido)-2-(6-azaspiro[2.5]octan-6-yl)benzamide]

More lines, now with the values behind:

SMILES | IC50 [nM]
Cc1cc(NC(=O)c2ccc(NS(=O)(=O)C[C@@H](C)O)cc2N2CCC3(CC2)CC3)nc(N2CCO[C@H](C)C2)n1 [Example 6-27-1, 4-(((R)-2-Hydroxypropoyl)sulfonamido)-N-(6-methyl-2-((R)-2-methylmorpholino)pyrimidin-4-yl)-2-(6-azaspiro[2.5]octan-6-yl)benzamide] | 162
Cc1cc(NC(=O)c2ccc(NS(=O)(=O)CF)cc2N2CCC3(CC2)CC3)nc(N2CCC(F)(F)CC2)n1 [Example 6-2, N-(2-(4,4-Difluoropiperidin-1-yl)-6-methylpyrimidin-4-yl)-4-((fluoromethyl)sulfonamido)-2-(6-azaspiro[2.5]octan-6-yl)benzamide] | 42
Cc1cc(NC(=O)c2ccc(NS(=O)(=O)CCO)cc2N2CCC3(CC2)CC3)nc(N2CC(O)C2)n1 [Example 11-20, N-(2-(3-Hydroxyazetidin-1-yl)-6-methylpyrimidin-4-yl)-4-((2-hydroxyethyl)sulfonamido)-2-(6-azaspiro[2.5]octan-6-yl)benzamide] | 48.3
Cc1cc(NC(=O)c2ccc(NS(=O)(=O)CCO)cc2N2CCC3(CC2)CC3)cc(OCCC(F)(F)F)n1 [Example 11-60, 4-((2-Hydroxyethyl)sulfonamido)-N-(2-methyl-6-(3,3,3-trifluoropropoxy)pyridin-4-yl)-2(6-azaspiro[2.5]octan-6-yl)benzamide] | 84
Cc1cc(NC(=O)c2ccc(NS(=O)(=O)CCO)cc2N2CCC3(CC2)CC3)nc(N2CCC3C[C@]3(O)C2)n1 (stereo partly drawn) [Example 11-42, N-(2-((1R)-1-Hydroxy-3-azabicyclo[4.1.0]heptan-3-yl)-6-methylpyrimidin-4-yl)-4-((2-hydroxyethyl)sulfonamido)-2-(6-azaspiro[2.5]octan-6-yl)benzamide] | 34
Cc1cc(NC(=O)c2ccc(S(=N)(=O)C3COC3)cc2N2CCC3(CC2)CC3)nc(N2CCC(F)(F)CC2)n1 (centres unmarked) [Example 19-1, N-(2-(4,4-Difluoropiperidin-1-yl)-6-methylpyrimidin-4-yl)-4-(oxetane-3-sulfonimidoyl)-2-(6-azaspiro[2.5]octan-6-yl)benzamide] | 163
Cc1cc(NC(=O)c2ccc(NS(=O)(=O)C3(C)CC3)cc2N2CCC3(CC2)CC3)nc(N2CCC(F)(F)CC2)n1 [Example 2-8, N-(2-(4,4-Difluoropiperidin-1-yl)-6-methylpyrimidin-4-yl)-4-((1-methylcyclopropan)-1-sulfonamido)-2-(6-azaspiro[2.5]octan-6-yl)benzamide] | 713
O=C(Nc1ccnc(N2CCC(F)CC2)n1)c1ccc(NS(=O)(=O)CCO)cc1N1CCC2(CC1)CC2 [Example 11-56, N-(2-(4-Fluoropiperidin-1-yl)pyrimidin-4-yl)-4-((2-hydroxyethyl)sulfonamido)-2-(6-azaspiro[2.5]octan-6-yl)benzamide] | 22
Cc1cc(NC(=O)c2ccc(S(C)(=O)=O)cc2N2CCC3(CC2)CC3)nc(NC[C@H](C)O)n1 [Example 1-5, (S)-N-(2-((2-Hydroxypropyl)amino)-6-methylpyrimidin-4-yl)-4-(methylsulfonyl)-2-(6-azaspiro[2.5]octan-6-yl)benzamide] | 451
C[C@@H]1CN(c2nccc(NC(=O)c3ccc(NS(=O)(=O)C[C@@H](C)O)cc3N3CCC4(CC3)CC4)n2)CCO1 [Example 6-33-2, 4-(((R)-2-hydroxypropyl)sulfonamido)-N-(2-((R)-2-methylmorpholino)pyrimidin-4-yl)-2-(6-azaspiro[2.5]octan-6-yl)benzamide] | 86
Cc1cc(NC(=O)c2ccc(NS(=O)(=O)C[C@@H](C)O)cc2N2CCC3(CC2)CC3)nc(OCCC(F)(F)F)n1 [Example 6-28-1, (R)-4-((2-Hydroxypropyl)sulfonamido)-N-(6-methyl-2-(3,3,3-trifluoropropoxy)pyrimidin-4-yl)-2-(6-azaspiro[2.5]octan-6-yl)benzamide] | 68
Cc1cc(NC(=O)c2ccc(NS(=O)(=O)[C@@H](CO)CF)cc2N2CCC3(CC2)CC3)nc(N2CCC(F)(F)CC2)n1 [Example 16-2, (S)-N-(2-(4,4-Difluoropiperidin-1-yl)-6-methylpyrimidin-4-yl)-4-((2-fluoro-1-(hydroxymethyl)ethyl)sulfonamido)-2-(6-azaspiro[2.5]octan-6-yl)benzamide] | 96
O=C(Nc1ccnc(N2CCC(F)(F)CC2)n1)c1ccc(S(=O)(=O)NCCO)cc1N1CCC2(CC1)CC2 [Example 17-4, N-(2-(4,4-Difluoropiperidin-1-yl)pyrimidin-4-yl)-4-(N-(2-hydroxyethyl)sulfamoyl)-2-(6-azaspiro[2.5]octan-6-yl)benzamide] | 23
CCS(=O)(=O)Nc1ccc(C(=O)Nc2cc(C)nc(N3CCC(F)CC3)n2)c(N2CCC3(CC2)CC3)c1 [Example 11-82, 4-(Ethylsulfonamido)-N-(2-(4-fluoropiperidin-1-yl)-6-methylpyrimidin-4-yl)-2-(6-azaspiro[2.5]octan-6-yl)benzamide] | 51
Cc1cc(NC(=O)c2ccc(NS(=O)(=O)CCO)cc2N2CCC3(CC2)CC3)nc(N2CCOC3(CC3)C2)n1 [Example 11-47, 4-((2-Hydroxyethyl)sulfonamido)-N-(6-methyl-2-(4-oxa-7-azaspiro[2.5]octan-7-yl)pyrimidin-4-yl)-2-(6-azaspiro[2.5]octan-6-yl)benzamide] | 95
C[C@@H]1CN(c2nccc(NC(=O)c3cc(F)c(NS(=O)(=O)CCO)cc3N3CCC4(CC3)CC4)n2)CCO1 [Example 9-1, (R)-5-Fluoro-4-((2-hydroxyethyl)sulfonamido)-N-(2-(2-methylmorpholino)pyrimidin-4-yl)-2-(6-azaspiro[2.5]octan-6-yl)benzamide] | 78
Cc1cc(NC(=O)c2ccc(NS(=O)(=O)CCO)cc2N2CCC3(CC2)CC3)nc(N2CCC[C@H](O)C2)n1 [Example 11-53, (S)-4-((2-Hydroxyethyl)sulfonamido)-N-(2-(3-hydroxypiperidin-1-yl)-6-methylpyrimidin-4-yl)-2-(6-azaspiro[2.5]octan-6-yl)benzamide] | 105
Cc1cc(NC(=O)c2ccc(NS(=O)(=O)CCO)cc2N2CCC3(CC2)CC3)nc(N2CC3C[C@]3(O)C2)n1 (stereo partly drawn) [Example 11-32, N-(2-((1R)-1-Hydroxy-3-azabicyclo[3.1.0]hexan-3-yl)-6-methylpyrimidin-4-yl)-4-((2-hydroxyethyl)sulfonamido)-2-(6-azaspiro[2.5]octan-6-yl)benzamide] | 193
Cc1cc(NC(=O)c2ccc(S(=O)(=O)C3CC3)cc2N2CCC3(CC2)CC3)nc(N2CCC(F)(F)CC2)n1 [Example 14-5, 4-(Cyclopropylsulfonyl)-N-(2-(4,4-difluoropiperidin-1-yl)-6-methylpyrimidin-4-yl)-2-(6-azaspiro[2.5]octan-6-yl)benzamide] | 826
C[C@@H]1CN(c2nccc(NC(=O)c3ccc(S(C)(=O)=O)cc3N3CCC4(CC3)CC4)n2)CCO1 [Example 2-7, (R)-N-(2-(2-Methylmorpholino)pyrimidin-4-yl)-4-(methylsulfonyl)-2-(6-azaspiro[2.5]octan-6-yl)benzamide] | 240
